Patent publication US4122034A, “Antimicrobial compositions” (Schering Corporation, priority 1975, dated 1978)
Values after ≈ are worked out from the molar mass of the structure shown.

Key:
Trychomonas vaginalis = assay: In vitro Anti-Trichomonal activity (Table VII); assay type: cell-based
Method: (§1) All the tests were carried out and (when necessary) scored under standard conditions. "MIC" means "minimum inhibitory concentration."
In vitro Anti-Trichomonal Activity of some 2-aminoalkyl-3-
phenyl-indenes of formula II.

Trichophyton rubrum = assay: In vitro antifungal activity, dilutions in Sabouraud's Dextrose Broth (Table IV); assay type: cell-based; details: 96 h
Method: as §1
(§2) In vitro Antifungal Activity of 2-amioalkyl-3-phenylindoles
(§3) of the formula I against Dermetophytes and Aspergillus.
(§4) Dilutions in Sabouraud's Dextrose Broth.

Trichophyton megninii = assay: as above; assay type: cell-based; details: Trichophyton rubrum; after 96 hours
Method: as §1, §2, §3, §4

Microsporum nanum = assay: as above; assay type: cell-based; details: Nannizzia nana; after 96 hours
Method: as §1, §2, §3, §4

Aspergillus niger 6275 = assay: as above; assay type: cell-based; details: after 96 hours
Method: as §1, §2, §3, §4

Tricoderm sp. = assay: as above; assay type: cell-based; details: after 96 hours
Method: as §1, §2, §3, §4

Trichophyton soudenense = assay: as above; assay type: cell-based; details: after 96 hours
Method: as §1, §2, §3, §4

Trichophyton discoides = assay: as above; assay type: cell-based; details: after 96 hours
Method: as §1, §2, §3, §4

Trichophyton tonsurans = assay: as above; assay type: cell-based; details: after 96 hours
Method: as §1, §2, §3, §4

[1] = system: Trichophyton schoenleinii; assay: as above; assay type: cell-based; details: 96 h
Method: as §1, §2, §3, §4

Microsporum distortum = assay: as above; assay type: cell-based; details: after 96 hours
Method: as §1, §2, §3, §4

Aspergillus sp. No. 3 = assay: as above; assay type: cell-based; details: after 96 hours
Method: as §1, §2, §3, §4

Trichophyton ferrugineum = assay: as above; assay type: cell-based; details: Microsporum ferrugineum; after 96 hours
Method: as §1, §2, §3, §4

Epidermophyton floccosum = assay: as above; assay type: cell-based; details: after 96 hours
Method: as §1, §2, §3, §4

Trichophyton ascoides = assay: as above; assay type: cell-based; details: after 96 hours
Method: as §1, §2, §3, §4

Trichophyton gallinae = assay: as above; assay type: cell-based; details: after 96 hours
Method: as §1, §2, §3, §4

[2] = system: Trichophyton mentagrophytes; assay: as above; assay type: cell-based; details: 96 h
Method: as §1, §2, §3, §4

Pseudomonas acruginosa = assay: In vitro antibacterial activity, dilution in Mueller Hinton Agar (Table I); assay type: cell-based
Method: as §1
(§5) In vitro Antibacterial Activity of 2-aminoalkyl-3-phenyl-
(§6) indoles of the formula I. Dilution in Mueller Hinton Agar pH 7.4

Proteus rettgeri = assay: as above; assay type: cell-based; details: Providencia rettgeri; 'Proteus rettgeri mirabilis' [sic]; Mueller Hinton Agar pH 7.4
Method: as §1, §5, §6

Staphylococcus aureus = assay: as above; assay type: cell-based; details: Mueller Hinton Agar pH 7.4
Method: as §1, §5, §6

Enterococcus = assay: as above; assay type: cell-based
Method: as §1, §5, §6

Escherichia coli = assay: as above; assay type: cell-based
Method: as §1, §5, §6

Streptococcus pyogenes = assay: as above; assay type: cell-based
Method: as §1, §5, §6

Salmonella = assay: as above; assay type: cell-based
Method: as §1, §5, §6

Proteus vulgaris = assay: as above; assay type: cell-based; details: strain Napol, Mueller Hinton Agar pH 7.4
Method: as §1, §5, §6

Proteus mirabilis = assay: as above; assay type: cell-based; details: Mueller Hinton Agar pH 7.4
Method: as §1, §5, §6

Proteus morganii = assay: as above; assay type: cell-based; details: Morganella morganii; strain Valz; Mueller Hinton Agar pH 7.4
Method: as §1, §5, §6

Klebsiella = assay: as above; assay type: cell-based
Method: as §1, §5, §6

Eubacterium lentum = assay: In vitro activity against anaerobes in fluid Thioglycollate medium (Table II); assay type: cell-based; details: Eggerthella lenta
Method: as §1
(§7) In vitro activity of 2-aminoalkyl-3-phenylindoles of the formula I
(§8) against anaerobes in fluid Thioglycollate medium

Clostridium novyi = assay: as above; assay type: cell-based
Method: as §1, §7, §8

Peptostreptococcus = assay: as above; assay type: cell-based
Method: as §1, §7, §8

Bacteroides fragilis = assay: as above; assay type: cell-based
Method: as §1, §7, §8

Bacteroides corrodens = assay: as above; assay type: cell-based; details: Eikenella corrodens
Method: as §1, §7, §8

[3] = Acute toxicity in mice (Table V); details: mouse, in vivo
Method: as §1
Acute Toxicity of 2-aminoalkyl-3-phenylindoles of the formula I

NCc1[nH]c2ccc(Cl)cc2c1-c1ccccc1F [A, 2-Aminomethyl-5-chloro-3-(2-fluorophenyl)indole]
IC50 (Trychomonas vaginalis; 50% suppression, read-out: Minimal Level to Produce 50% Suppression): 24 µg/mL (≈ 87.4 µM) | IC90 (Trychomonas vaginalis; 90% suppression, read-out: Minimal Level to Produce 90% Suppression): 40 µg/mL (≈ 146 µM) | MIC (Trichophyton rubrum; strain 3, after 96 hours): 7.5 µg/mL (≈ 27.3 µM) | MIC (Trichophyton rubrum; strain 360, after 96 hours): 7.5 µg/mL (≈ 27.3 µM) | MIC (Trichophyton rubrum; strain Blehl, after 96 hours): 7.5 µg/mL (≈ 27.3 µM) | MIC (Trichophyton rubrum; strain Haggerty, after 96 hours): 7.5 µg/mL (≈ 27.3 µM) | MIC (Trichophyton megninii): 3 µg/mL (≈ 10.9 µM) | MIC (Microsporum nanum): 3 µg/mL (≈ 10.9 µM) | MIC (Aspergillus niger 6275): 17.5 µg/mL (≈ 63.7 µM) | MIC (Tricoderm sp.): 7.5 µg/mL (≈ 27.3 µM) | MIC (Trichophyton soudenense): 17.5 µg/mL (≈ 63.7 µM) | MIC (Trichophyton discoides): 7.5 µg/mL (≈ 27.3 µM) | MIC (Trichophyton tonsurans): 17.5 µg/mL (≈ 63.7 µM) | MIC ([1]; strain 2, after 96 hours): 3 µg/mL (≈ 10.9 µM) | MIC ([1]; strain not given, after 96 hours): 17.5 µg/mL (≈ 63.7 µM) | MIC (Microsporum distortum): 3 µg/mL (≈ 10.9 µM) | MIC (Aspergillus sp. No. 3): 17.5 µg/mL (≈ 63.7 µM) | MIC (Trichophyton ferrugineum): 7.5 µg/mL (≈ 27.3 µM) | MIC (Epidermophyton floccosum): 3 µg/mL (≈ 10.9 µM) | MIC (Trichophyton ascoides): 17.5 µg/mL (≈ 63.7 µM) | MIC (Trichophyton gallinae): 7.5 µg/mL (≈ 27.3 µM) | MIC ([2]; strain A, after 96 hours): 7.5 µg/mL (≈ 27.3 µM) | MIC ([2]; strain B, after 96 hours): 7.5 µg/mL (≈ 27.3 µM) | MIC ([2]; strain C, after 96 hours): 7.5 µg/mL (≈ 27.3 µM) | MIC ([2]; strain H377, after 96 hours): 7.5 µg/mL (≈ 27.3 µM) | MIC ([2]; strain Young, after 96 hours): 7.5 µg/mL (≈ 27.3 µM) | MIC (Pseudomonas acruginosa; pH 7.4, strain 130, Mueller Hinton Agar pH 7.4): 17.5 µg/mL (≈ 63.7 µM) | MIC (Pseudomonas acruginosa; pH 7.4, strain 138, Mueller Hinton Agar pH 7.4): 17.5 µg/mL (≈ 63.7 µM) | MIC (Pseudomonas acruginosa; pH 7.4, strain 762, Mueller Hinton Agar pH 7.4): 17.5 µg/mL (≈ 63.7 µM) | MIC (Pseudomonas acruginosa; pH 7.4, strain 8709, Mueller Hinton Agar pH 7.4): 17.5 µg/mL (≈ 63.7 µM) | MIC (Pseudomonas acruginosa; pH 7.4, strain Trav. 1, Mueller Hinton Agar pH 7.4): 17.5 µg/mL (≈ 63.7 µM) | MIC (Proteus rettgeri): 17.5 µg/mL (≈ 63.7 µM) | MIC (Staphylococcus aureus; 209P, pH 7.4, strain 209P): 7.5 µg/mL (≈ 27.3 µM) | MIC (Staphylococcus aureus; pH 7.4, strain 59N): 3 µg/mL (≈ 10.9 µM) | MIC (Staphylococcus aureus; pH 7.4, strain Gray): 7.5 µg/mL (≈ 27.3 µM) | MIC (Staphylococcus aureus; pH 7.4, strain Wood): 3 µg/mL (≈ 10.9 µM) | MIC (Staphylococcus aureus; pH 7.4, strain Zeigler): 3 µg/mL (≈ 10.9 µM) | MIC (Enterococcus; pH 7.4, strain 373, Mueller Hinton Agar pH 7.4): 7.5 µg/mL (≈ 27.3 µM) | MIC (Enterococcus; pH 7.4, strain 0928/72, Mueller Hinton Agar pH 7.4): 7.5 µg/mL (≈ 27.3 µM) | MIC (Escherichia coli; pH 7.4, strain 777, Mueller Hinton Agar pH 7.4): 3 µg/mL (≈ 10.9 µM) | MIC (Escherichia coli; pH 7.4, strain 1574-1, Mueller Hinton Agar pH 7.4): 7.5 µg/mL (≈ 27.3 µM) | MIC (Escherichia coli; pH 7.4, strain 4195, Mueller Hinton Agar pH 7.4): 3 µg/mL (≈ 10.9 µM) | MIC (Escherichia coli; pH 7.4, strain 10536, Mueller Hinton Agar pH 7.4): 7.5 µg/mL (≈ 27.3 µM) | MIC (Escherichia coli; pH 7.4, strain JR66, Mueller Hinton Agar pH 7.4): 3 µg/mL (≈ 10.9 µM) | MIC (Streptococcus pyogenes; pH 7.4, strain 27, Mueller Hinton Agar pH 7.4): 7.5 µg/mL (≈ 27.3 µM) | MIC (Streptococcus pyogenes; pH 7.4, strain C, Mueller Hinton Agar pH 7.4): 7.5 µg/mL (≈ 27.3 µM) | MIC (Streptococcus pyogenes; pH 7.4, strain Cruz, Mueller Hinton Agar pH 7.4): 3 µg/mL (≈ 10.9 µM) | MIC (Salmonella; TYPHI, pH 7.4, B typhi, Mueller Hinton Agar pH 7.4): 7.5 µg/mL (≈ 27.3 µM) | MIC (Salmonella; pH 7.4, C1 Oao, Mueller Hinton Agar pH 7.4): 7.5 µg/mL (≈ 27.3 µM) | MIC (Salmonella; pH 7.4, C2 Cuban, Mueller Hinton Agar pH 7.4): 7.5 µg/mL (≈ 27.3 µM) | MIC (Salmonella; pH 7.4, C2 Napc, Mueller Hinton Agar pH 7.4): 3 µg/mL (≈ 10.9 µM) | MIC (Salmonella; pH 7.4, Salmonella ent. 1, Mueller Hinton Agar pH 7.4): 7.5 µg/mL (≈ 27.3 µM) | MIC (Proteus vulgaris): 17.5 µg/mL (≈ 63.7 µM) | MIC (Proteus mirabilis; pH 7.4, strain Hard): 17.5 µg/mL (≈ 63.7 µM) | MIC (Proteus mirabilis; pH 7.4, strain Peras): 7.5 µg/mL (≈ 27.3 µM) | MIC (Proteus morganii): 17.5 µg/mL (≈ 63.7 µM) | MIC (Klebsiella; pH 7.4, strain 121, Mueller Hinton Agar pH 7.4): 7.5 µg/mL (≈ 27.3 µM) | MIC (Klebsiella; pH 7.4, strain 3020, Mueller Hinton Agar pH 7.4): 7.5 µg/mL (≈ 27.3 µM) | MIC (Klebsiella; pH 7.4, strain AD17, Mueller Hinton Agar pH 7.4): 7.5 µg/mL (≈ 27.3 µM) | MIC (Klebsiella; pH 7.4, strain AD22, Mueller Hinton Agar pH 7.4): 7.5 µg/mL (≈ 27.3 µM) | MIC (Klebsiella; pH 7.4, strain G3694, Mueller Hinton Agar pH 7.4): 7.5 µg/mL (≈ 27.3 µM) | MIC (Eubacterium lentum; 48 hrs): 17.5 µg/mL (≈ 63.7 µM) | MIC (Eubacterium lentum; 72 hrs): 17.5 µg/mL (≈ 63.7 µM) | MIC (Clostridium novyi; 48 hrs): 7.5 µg/mL (≈ 27.3 µM) | MIC (Clostridium novyi; 72 hrs): 7.5 µg/mL (≈ 27.3 µM) | MIC (Peptostreptococcus; 48 hrs): 3 µg/mL (≈ 10.9 µM) | MIC (Peptostreptococcus; 72 hrs): 3 µg/mL (≈ 10.9 µM) | MIC (Bacteroides fragilis; 48 hrs): 7.5 µg/mL (≈ 27.3 µM) | MIC (Bacteroides fragilis; 72 hrs): 7.5 µg/mL (≈ 27.3 µM) | MIC (Bacteroides corrodens; 48 hrs): 7.5 µg/mL (≈ 27.3 µM) | MIC (Bacteroides corrodens; 72 hrs): 7.5 µg/mL (≈ 27.3 µM) | LD50 ([3]; Oral): > 1000 mg/kg | LD50 ([3]; ip, I.P.): 250 mg/kg | LD50 ([3]; sc, S.C.): 850 mg/kg
